Earlier results in patent publication US20200181654A1, “AGLYCONE PRODUCTION PROMOTER” (priority 2016, published 2020).

Details: after oral ingestion

SMILES | maximum values of the plasma concentrations of the aglycones, relative to ingestion of the glycosides (daidzin, genistin)
O=c1c(-c2ccc(O)cc2)coc2cc(O)ccc12 [daidzein] | five times or greater
O=c1c(-c2ccc(O)cc2)coc2cc(O)cc(O)c12 [genistein] | five times or greater
